From patent US8748426B2, “Inhibitors of diacylglycerol acyl transferase” (Piramal Enterprises Limited, priority 2009, dated 2014)

Molecular target: T1, hDGAT1 (Homo sapiens, UniProt O75907)
T1 sequence (O75907 1-488): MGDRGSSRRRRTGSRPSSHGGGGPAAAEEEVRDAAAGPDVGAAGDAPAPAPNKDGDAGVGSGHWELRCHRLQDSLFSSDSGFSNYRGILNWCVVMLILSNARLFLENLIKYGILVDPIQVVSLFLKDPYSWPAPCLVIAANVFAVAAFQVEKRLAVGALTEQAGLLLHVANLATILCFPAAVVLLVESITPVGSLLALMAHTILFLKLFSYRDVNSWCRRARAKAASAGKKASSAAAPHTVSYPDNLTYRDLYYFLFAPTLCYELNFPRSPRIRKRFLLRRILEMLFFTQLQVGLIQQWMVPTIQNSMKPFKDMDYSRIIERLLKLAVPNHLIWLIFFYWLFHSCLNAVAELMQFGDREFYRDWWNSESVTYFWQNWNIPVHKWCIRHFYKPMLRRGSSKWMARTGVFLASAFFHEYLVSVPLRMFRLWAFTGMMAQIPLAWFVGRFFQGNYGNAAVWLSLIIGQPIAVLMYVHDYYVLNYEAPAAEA
Experiment: In-vitro DGAT1 assay (14C oleoyl CoA, hDGAT1 microsomes from Sf9 cells)
Details: at 1 μM

| Compound | % Inhibition of hDGAT1 |
| --- | --- |
| Cc1cc(NC(=O)c2ccc(-c3ccccc3)cc2)ccc1-c1ccc2c(c1)C(=O)N([C@H](C(=O)O)C(C)C)C2 [Example 470, (S)-2-(6-(4-Biphenyl-4-ylcarboxamido-2-methylphenyl)-1-oxoisoindolin-2-yl)-3-methylbutanoic acid] | ++ (>50% Inhibition) |
| O=C(Nc1ccc(-c2ccc3c(c2)C(=O)N(C24C[C@@H]5C[C@@H](CC(C(=O)O)(C5)C2)C4)C3)cc1)c1ccc(C(F)(F)F)cc1 [Example 571, (1r,3s,5R,7S)-3-(1-Oxo-6-(4-(4-(trifluoromethyl)benzamido)phenyl)isoindolin-2-yl)adamantane-1-carboxylic acid] | ++ (>50% Inhibition) |
| O=C(Nc1ccc(-c2ccc3c(c2)C(=O)N(C2CCC(C(=O)O)CC2)C3)cc1)c1ccc(-c2ccccc2)cc1 (stereo not shown) [Example 557, (1r,4r)-4-(6-(4-([1,1′-Biphenyl]-4-ylcarboxamido)phenyl)-1-oxoisoindolin-2-yl)cyclohexanecarboxylic acid] | ++ (>50% Inhibition) |
| O=C(Nc1ccc(-c2ccc3c(c2)C(=O)N(C2(C(=O)O)CCCC2)C3)cc1)c1ccc(-c2ccccc2)cc1 [Example 529, 1-(6-(4-([1,1′-Biphenyl]-4-ylcarboxamido)phenyl)-1-oxoisoindolin-2-yl)cyclopentane carboxylic acid] | ++ (>50% Inhibition) |
| O=C(Nc1ccc(-c2ccc3c(c2)C(=O)N([C@H]2CC[C@H](C(=O)O)CC2)C3)cc1)c1ccc(C(F)(F)F)cc1 [Example 563, (1r,4r)-4-(1-Oxo-6-(4-(4-(trifluoromethyl)benzamido)phenyl)isoindolin-2-yl)cyclohexanecarboxylic acid] | + (10-50% Inhibition) |
| O=C(Nc1ccc(-c2ccc3c(c2)C(=O)N([C@@H]2CCC[C@@H]2C(=O)O)C3)cc1)c1ccc(-c2ccccc2)cc1 [Example 594, (1S,2R)-2-(6-(4-([1,1′-Biphenyl]-4-ylcarboxamido)phenyl)-1-oxoisoindolin-2-yl)cyclopentanecarboxylic acid] | ++ (>50% Inhibition) |

Same assay, conditions: read-out: % Inhibition of hDGAT1

| Compound | inhibition at 1 µM [%] |
| --- | --- |
| CCOc1ccccc1C(=O)Nc1ccc(-c2ccc3c(c2)C(=O)N([C@H](C(=O)O)C(C)C)C3)cc1 [Example 202, (S)-2-(6-(4-(2-Ethoxybenzamido)phenyl)-1-oxoisoindolin-2-yl)-3-methylbutanoic acid] | > 50 |
| CC(C)[C@@H](C(=O)O)N1Cc2ccc(-c3ccc(NC(=O)c4ccc(F)cc4)cc3)cc2C1=O [Example 100, (S)-2-(6-(4-(4-Fluorobenzamido)phenyl)-1-oxoisoindolin-2-yl)-3-methylbutanoic acid] | > 50 |
| CCCCCc1ccc(C(=O)Nc2ccc(-c3ccc4c(c3)C(=O)N([C@H](C(=O)O)C(C)C)C4)c(F)c2)cc1 [Example 610, (S)-2-(6-(2-Fluoro-4-(4-pentylbenzamido)phenyl)-1-oxoisoindolin-2-yl)-3-methyl butanoic acid] | > 50 |
| CCCCOc1ccc(C(=O)Nc2ccc(-c3ccc4c(c3)C(=O)N([C@H](C(=O)O)C(C)C)C4)c(Cl)c2)cc1 [Example 484, (S)-2-(6-(4-(4-Butoxybenzamido)-2-chlorophenyl)-1-oxoisoindolin-2-yl)-3-methylbutanoic acid] | > 50 |
| CC(C)[C@@H](C(=O)O)N1Cc2ccc(-c3ccc(NC(=O)c4cccnc4Cl)cc3)cc2C1=O [Example 209, (S)-2-(6-(4-(2-Chloronicotinamido)phenyl)-1-oxoisoindolin-2-yl)-3-methyl butanoic acid] | > 50 |
| CC(C)[C@@H](C(=O)O)N1Cc2ccc(-c3ccc(NC(=O)c4ccc(C(C)(C)C)cc4)nc3)cc2C1=O [Example 492, (S)-2-(6-(6-(4-tert-Butylbenzamido)pyridin-3-yl)-1-oxoisoindolin-2-yl)-3-methylbutanoic acid] | > 50 |
| CC(C)[C@@H](C(=O)O)N1Cc2ccc(-c3ccc(NC(=S)Nc4cccc(Cl)c4)cc3)cc2C1=O [Example 64, (S)-2-(6-(4-(3-(3-Chlorophenyl)thioureido)phenyl)-1-oxoisoindolin-2-yl)-3-methyl butanoic acid] | 10 to 50 |
| CCCCOc1ccc(C(=O)Nc2ccc(-c3ccc4c(c3)C(=O)N([C@H](C(=O)O)C(C)C)C4)c(OC)c2)cc1 [Example 460, (S)-2-(6-(4-(4-Butoxybenzamido)-2-methoxyphenyl)-1-oxoisoindolin-2-yl)-3-methylbutanoic acid] | 10 to 50 |
| CC(C)[C@@H](C(=O)O)N1Cc2ccc(-c3ccc(NC(=O)c4ccc(N5CCCC5)nc4)cc3)cc2C1=O [Example 217, (S)-3-Methyl-2-(1-oxo-6-(4-(6-(pyrrolidin-1-yl)nicotinamido)phenyl)isoindolin-2-yl)butanoic acid] | > 50 |
| CC(C)[C@@H](C(=O)O)N1Cc2ccc(-c3ccc(NC(=O)c4ccccc4C(F)(F)F)cc3)cc2C1=O [Example 200, (S)-3-Methyl-2-(1-oxo-6-(4-(2-(trifluoromethyl)benzamido)phenyl)isoindolin-2-yl)butanoic acid] | 10 to 50 |
| CC(C)[C@@H](C(=O)O)N1Cc2ccc(-c3ccc(NC(=O)c4ccc(Cl)cc4)cc3F)cc2C1=O [Example 606, (S)-2-(6-(4-(4-Chlorobenzamido)-2-fluorophenyl)-1-oxoisoindolin-2-yl)-3-methyl butanoic acid] | 10 to 50 |
| COc1cc(C(=O)Nc2ccc(-c3ccc4c(c3)C(=O)N([C@H](C(=O)O)C(C)C)C4)cc2)cc(OC)c1OC [Example 144, (S)-3-Methyl-2-(1-oxo-6-(4-(3,4,5-trimethoxybenzamido)phenyl)isoindolin-2-yl)butanoic acid] | > 50 |
| CC(C)[C@@H](C(=O)O)N1Cc2ccc(-c3ccc(NC(=O)Nc4ccc(F)cc4)cc3)cc2C1=O [Example 8, (S)-2-(6-(4-(3-(4-Fluorophenyl)ureido)phenyl)-1-oxoisoindolin-2-yl)-3-methyl butanoic acid] | 10 to 50 |
| CCCCc1ccc(C(=O)Nc2ccc(-c3ccc4c(c3)C(=O)N([C@H](C(=O)O)C(C)C)C4)cc2)cc1 [Example 164, (S)-2-(6-(4-(4-Butylbenzamido)phenyl)-1-oxoisoindolin-2-yl)-3-methylbutanoic acid] | > 50 |
| CC(C)[C@@H](C(=O)O)N1Cc2ccc(-c3ccc(NC(=O)c4ccc(Cl)cc4Cl)cc3)cc2C1=O [Example 134, (S)-2-(6-(4-(2,4-Dichlorobenzamido)phenyl)-1-oxoisoindolin-2-yl)-3-methyl butanoic acid] | 10 to 50 |
| CC(C)[C@@H](C(=O)O)N1Cc2ccc(-c3ccc(NC(=O)c4cccc(F)c4)cc3)cc2C1=O [Example 106, (S)-2-(6-(4-(3-Fluorobenzamido)phenyl)-1-oxoisoindolin-2-yl)-3-methylbutanoic acid] | > 50 |
| Cc1ccc(C(=O)Nc2ccc(-c3ccc4c(c3)CN([C@H](C(=O)O)C(C)C)C4=O)cc2)cc1 [Example 319, (S)-3-Methyl-2-(5-(4-(4-methylbenzamido)phenyl)-1-oxoisoindolin-2-yl)butanoic acid] | 10 to 50 |
| CC(C)[C@@H](C(=O)O)N1Cc2cc(-c3ccc(NC(=O)Nc4ccc(F)cc4)cc3)ccc2C1=O [Example 225, (S)-2-(5-(4-(3-(4-Fluorophenyl)ureido)phenyl)-1-oxoisoindolin-2-yl)-3-methylbutanoic acid] | > 50 |
| CC(C)[C@@H](C(=O)O)N1Cc2ccc(-c3ccc(NC(=O)c4ccccc4)cc3)cc2C1=O [Example 98, (S)-2-(6-(4-Benzamidophenyl)-1-oxoisoindolin-2-yl)-3-methylbutanoic acid] | 10 to 50 |
| CCCCCCCCCCc1ccc(C(=O)Nc2ccc(-c3ccc4c(c3)C(=O)N([C@H](C(=O)O)C(C)C)C4)cc2)cc1 [Example 188, (S)-2-(6-(4-(4-Decylbenzamido)phenyl)-1-oxoisoindolin-2-yl)-3-methyl butanoic acid] | > 50 |
| CC(C)[C@@H](C(=O)O)N1Cc2ccc(-c3ccc(NC(=O)c4cc(-c5ccc(Cl)cc5)no4)cc3)cc2C1=O [Example 618, (S)-2-(6-(4-(3-(4-Chlorophenyl)isoxazole-5-carboxamido)phenyl)-1-oxoisoindolin-2-yl)-3-methylbutanoic acid] | > 50 |
| COc1ccc(C(=O)Nc2ccc(-c3ccc4c(c3)CN([C@H](C(=O)O)C(C)C)C4=O)cc2)cc1 [Example 311, (S)-2-(5-(4-(4-Methoxybenzamido)phenyl)-1-oxoisoindolin-2-yl)-3-methyl butanoic acid] | 10 to 50 |
| Cc1cc(C(=O)Nc2ccc(-c3ccc4c(c3)C(=O)N([C@H](C(=O)O)C(C)C)C4)cc2)ccc1F [Example 162, (S)-2-(6-(4-(4-Fluoro-3-methylbenzamido)phenyl)-1-oxoisoindolin-2-yl)-3-methyl butanoic acid] | > 50 |
| Cc1ccc(C(=O)Nc2ccc(-c3ccc4c(c3)C(=O)N([C@H](C(=O)O)C(C)C)C4)cc2)cc1 [Example 112, (S)-3-Methyl-2-(6-(4-(4-methylbenzamido)phenyl)-1-oxoisoindolin-2-yl)butanoic acid] | > 50 |
| CCCCCCCc1ccc(C(=O)Nc2ccc(-c3ccc4c(c3)C(=O)N([C@H](C(=O)O)C(C)C)C4)cc2)cc1 [Example 184, (S)-2-(6-(4-(4-Heptylbenzamido)phenyl)-1-oxoisoindolin-2-yl)-3-methylbutanoic acid] | > 50 |
